US7981897B2, “Crystal form of (3-cyano-1H-Indo1-7-yl)-[4-(4-fluorophenethyl)piperazin-1-yl]methanone, hydrochloride” (Merck Patent GmbH, priority 2004, dated 2011)

Assays:
[1] = Tabletting in a cam press: formation of form B under mechanical pressure, estimated by X-ray powder diffraction; assay type: physicochemical
Protocol: The pressures here are preferably those which usually prevail during tablet production if ram forces of between about 2 and 16 kN, in particular between 6 and 16 kN, are used as the maximum pressing forces.
In an EK0 cam press from Korsch (Berlin, Germany), year of construction 2002, tablets are produced at a rate of 50 units per minute using a 7 mm, round, flat ram with bevel.
The tablets contain 50 mg of EMD281014 in crystal form A, 93.2 mg of lactose monohydrate, 4.5 mg of croscarmellose and 2.3 mg of magnesium stearate. The ingredients are dry-mixed and compressed directly.
The proportion of form B is estimated by comparison of the X-ray powder diffraction patterns of the mixtures (FIGS. 3 and 4) with the diffraction patterns of the pure forms (FIGS. 1 and 2).

[2] = Storage of form B at elevated temperature, conversion into form A; assay type: physicochemical; conditions: storage at 105° C. for 24 hours
Protocol: Furthermore, a very simple method for the preparation of form A from form B has been found. To this end, form B merely needs to be stored at elevated temperatures of between about 75 and about 225° C., preferably 90 and 160° C. and particularly preferably between 110 and 140° C. Depending on the temperature and the storage duration, different degrees of conversion can be achieved. Depending on the target degree of conversion, the storage duration at a given temperature can be between a few minutes and several days. In order to achieve high degrees of conversion, […] is preferably stored for from several hours to days. Suitable storage times are, for example, 4, 8, 12, 16, 20, 24, 36 or 48 hours.

[3] = Stirring a suspension of form A in MTBE, form B estimated by X-ray powder diffraction; assay type: physicochemical
5-HT2A receptor [4] = biological target: T1, 5-HT2A receptor (Homo sapiens, UniProt P28223); conditions: background statement, no values; cited from earlier work
5-HT2A receptor [5] = biological target: T1, 5-HT2A receptor; conditions: background statement, no values; cited from earlier work; remark: listed apart in the source
[6] = cam press, contact time 310 ms, maximum pressing force 16 kN

T1 sequence (P28223 whole entry): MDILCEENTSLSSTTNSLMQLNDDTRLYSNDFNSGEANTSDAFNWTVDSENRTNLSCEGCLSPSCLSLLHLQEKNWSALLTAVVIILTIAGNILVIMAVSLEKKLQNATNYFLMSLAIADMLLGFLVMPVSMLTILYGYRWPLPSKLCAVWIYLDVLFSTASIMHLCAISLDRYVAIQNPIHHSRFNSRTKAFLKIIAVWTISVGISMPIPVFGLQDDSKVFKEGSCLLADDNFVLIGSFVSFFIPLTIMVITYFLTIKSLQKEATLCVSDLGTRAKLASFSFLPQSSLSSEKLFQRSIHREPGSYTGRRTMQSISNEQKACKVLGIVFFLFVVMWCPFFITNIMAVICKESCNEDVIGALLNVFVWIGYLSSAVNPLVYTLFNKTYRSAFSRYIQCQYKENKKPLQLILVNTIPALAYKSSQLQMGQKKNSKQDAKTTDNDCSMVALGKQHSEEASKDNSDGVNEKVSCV

In the case of `Cl.N#Cc1c[nH]c2c(C(=O)N3CCN(CCc4ccc(F)cc4)CC3)cccc12` [EMD281014 form B, (3-cyano-1H-indol-7-yl)-[4-(4-fluorophenethyl)piperazin-1-yl]methanone, hydrochloride], the “stability under the tablet production conditions” value ([1]; X-ray diffraction patterns of tablets produced from form B, no form A or further polymorphic forms unambiguously identified) is reported as “stable” and the “conversion of B into A” value [2] is reported as “complete conversion”.
With `Cl.N#Cc1c[nH]c2c(C(=O)N3CCN(CCc4ccc(F)cc4)CC3)cccc12` [EMD281014 form A, 7-{4-[2-(4-fluorophenyl)ethyl]-piperazine-1-carbonyl}-1H-indole-3-carbonitrile, hydrochloride] the “proportion of form B” value ([1]; cam press, contact time 250 ms, maximum pressing force 6 kN) was “about 20%”, the “proportion of form A in the mixture obtained” value [1, 6] was ~75% and the “proportion of form B in the mixture obtained” value [1, 6] was “about 25%”. For the same molecule, the “proportion of form B” value ([3]; 250 mg in 5 ml MTBE, stirred 14 days at room temperature) was “about 30 % by weight” and the “form B obtained in addition to form A” value ([3]; suspension in MTBE, room temperature, 14 days) was “about 30%”.
For `Cl.N#Cc1c[nH]c2c(C(=O)N3CCN(CCc4ccc(F)cc4)CC3)cccc12` [EMD281014, (3-cyano-1H-indol-7-yl)-[4-(4-fluorophenethyl)piperazin-1-yl]methanone, hydrochloride], the “affinity to 5-HT2A receptors” value (5-HT2A receptor [4]) is listed as “strong affinity” and the 5-HT2A receptor-antagonistic properties (5-HT2A receptor [5]) is listed as 5-HT2A receptor-antagonistic properties.
